Results from US20220031710A1, “USE OF ERK5 INHIBITORS FOR TREATING GLIOMAS IN PEDIATRIC SUBJECTS” (UNIVERSITY OF PITTSBURGH - OF THE COMMONWEALTH SYSTEM OF …, priority 2019, published 2022).
Where a SMILES comes first, the peptide text is derived from it. The star is where a group is joined. Cbz = O=C(OCc1ccccc1)*

Experiments:
[1] = molecular target: T1, EZH2 (Homo sapiens, UniProt Q15910); assay: Western blot of H3K27Me3, RAS activation and p16 in NSCs treated with EZH2 inhibitor; type: cell-based; settings: GSK343 (504)
T1 construct: endogenous in cells; host or cells: H9 hESC-derived human neural stem cells
Experimental: RAS activity was measured using the RAS activation assay (Cell Signaling Technology, Cat #8814). Briefly, active Ras Detection GST-RAF1-RBD fusion protein was used to bind the activated form of GTP-bound RAS, which was then immunoprecipitated from 500 μg of total cell lysate with glutathione resin. RAS activation levels were then determined by western blot using a RAS Mouse mAb. Activated RAS immune-precipitate was normalized to total RAS from whole cell lysate.
(§1) Cell pellets were lysed in PLC lysis buffer containing protease and phosphatase inhibitors (Roche Inc.). Protein lysates were quantified using the bicinchoninic acid (BCA) assay (Pierce Chemical Co., Rockford, Ill.). 30 μg of total protein lysate was loaded in 10% SDS-PAGE gels and electrophoresed. Proteins were transferred to PVDF membranes using a semi-dry transfer apparatus (Bio-Rad). Membranes were blocked for one hour and probed for various proteins overnight in 5% non-fat milk or 5% BSA in Tris Buffered Saline Solution, 0.5% Tween-20 (TBST) or Phosphate Buffered Saline Solution with 0.5% Tween-20 (PBST). Membranes were washed for 5 mins in TBST (3×) and incubated with horseradish peroxidase-conjugated antibodies specific for the primary antibody (BioRad Laboratories, Inc., CA, USA). Binding was detected using Chemiluminescence Reagent Plus (PerkinElmer Inc., MA, USA).

[2] = test system: NSCs; assay: Direct Trypan-Blue automated cell count of NSCs treated with EZH2 inhibitor; type: cell-based, human; settings: GSK343 (504), over 5 days
Experimental: Direct cell counts were performed using the Countess II FL Automated Cell Counter (ThermoFisher Scientific). Alamar blue viability (ThermoFisher Scientific) and the 5-bromo-2′-deoxyuridine (BrdU) incorporated cell proliferation assay (Cell Signaling Technology Cat #6813) were performed using the manufacturer's standard protocol. EC50 curve analysis was performed using raw fluorescent Alamar blue values that were inputted into PRISM 7.0. Drug concentrations were log 10 transformed and values normalized to percent viability with respect to vehicle treated cells. EC50 values were interpolated from a log inhibitor vs. normalized response with variable slope using a least square fit model.

[3] = test system: MYC; assay: Western blot of phospho MYC S62 and total MYC in DIPG cells; type: cell-based, human; settings: DIPG-IV cells with ERK5 knockdown (Dox); MG132 10 uM
Experimental: as §1

[4] = test system: RASAL1; assay: Western blot of RASAL1 after decitabine treatment; type: cell-based, human; settings: DIPG-007 and NSC H3K27M cells; 5 days; 1 μM
Experimental: as §1

T1 sequence (Q15910 whole entry): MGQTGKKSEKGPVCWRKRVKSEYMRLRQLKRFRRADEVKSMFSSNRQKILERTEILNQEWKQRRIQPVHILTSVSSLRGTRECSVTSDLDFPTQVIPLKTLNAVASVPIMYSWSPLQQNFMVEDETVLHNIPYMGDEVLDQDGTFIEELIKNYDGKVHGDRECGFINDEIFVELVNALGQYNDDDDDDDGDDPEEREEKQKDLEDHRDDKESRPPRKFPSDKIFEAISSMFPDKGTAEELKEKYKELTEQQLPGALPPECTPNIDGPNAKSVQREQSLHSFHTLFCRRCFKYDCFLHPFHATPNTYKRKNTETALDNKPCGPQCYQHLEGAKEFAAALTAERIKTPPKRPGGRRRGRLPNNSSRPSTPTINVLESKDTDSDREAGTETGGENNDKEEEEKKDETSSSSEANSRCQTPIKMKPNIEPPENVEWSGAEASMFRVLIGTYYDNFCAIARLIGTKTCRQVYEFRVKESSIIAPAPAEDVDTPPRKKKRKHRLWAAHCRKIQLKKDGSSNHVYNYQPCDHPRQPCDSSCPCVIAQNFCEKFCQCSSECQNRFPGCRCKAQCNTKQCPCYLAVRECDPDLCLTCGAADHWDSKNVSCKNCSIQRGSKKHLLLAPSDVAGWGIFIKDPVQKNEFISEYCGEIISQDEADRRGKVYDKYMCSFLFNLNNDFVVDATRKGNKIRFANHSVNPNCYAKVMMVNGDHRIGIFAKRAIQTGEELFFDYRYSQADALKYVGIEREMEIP
T1 sequence (O75530 whole entry partner): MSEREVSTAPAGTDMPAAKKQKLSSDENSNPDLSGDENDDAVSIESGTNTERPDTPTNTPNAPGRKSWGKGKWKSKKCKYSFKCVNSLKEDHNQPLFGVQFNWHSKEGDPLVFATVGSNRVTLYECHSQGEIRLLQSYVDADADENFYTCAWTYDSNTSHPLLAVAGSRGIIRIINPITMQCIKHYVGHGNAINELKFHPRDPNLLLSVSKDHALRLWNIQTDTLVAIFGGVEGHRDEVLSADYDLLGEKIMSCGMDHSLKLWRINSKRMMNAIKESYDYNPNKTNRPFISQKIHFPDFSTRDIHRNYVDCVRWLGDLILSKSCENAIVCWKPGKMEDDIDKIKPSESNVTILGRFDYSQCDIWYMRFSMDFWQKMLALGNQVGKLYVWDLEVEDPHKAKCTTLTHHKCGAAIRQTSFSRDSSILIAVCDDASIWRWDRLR
T1 sequence (Q15022 whole entry partner): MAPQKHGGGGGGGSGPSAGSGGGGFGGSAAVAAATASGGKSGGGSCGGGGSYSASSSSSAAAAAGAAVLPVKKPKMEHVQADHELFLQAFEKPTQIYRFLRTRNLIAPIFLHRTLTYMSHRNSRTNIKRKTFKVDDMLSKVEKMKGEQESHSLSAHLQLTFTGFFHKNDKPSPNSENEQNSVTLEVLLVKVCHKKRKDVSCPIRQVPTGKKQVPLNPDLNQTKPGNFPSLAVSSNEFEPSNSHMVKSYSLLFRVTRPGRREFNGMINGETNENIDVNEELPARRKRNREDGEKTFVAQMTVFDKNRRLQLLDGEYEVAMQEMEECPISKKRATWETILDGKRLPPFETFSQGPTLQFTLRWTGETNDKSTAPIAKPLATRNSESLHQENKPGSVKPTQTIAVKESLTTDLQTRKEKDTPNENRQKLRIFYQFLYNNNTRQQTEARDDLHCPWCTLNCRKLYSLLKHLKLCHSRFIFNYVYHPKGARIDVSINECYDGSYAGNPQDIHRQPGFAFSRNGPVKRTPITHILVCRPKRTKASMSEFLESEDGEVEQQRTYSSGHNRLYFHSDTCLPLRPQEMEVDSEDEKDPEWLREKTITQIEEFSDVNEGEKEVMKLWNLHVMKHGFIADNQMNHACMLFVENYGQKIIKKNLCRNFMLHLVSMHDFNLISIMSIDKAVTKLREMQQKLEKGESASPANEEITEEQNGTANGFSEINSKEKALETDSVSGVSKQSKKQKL
T1 sequence (Q09028 whole entry partner): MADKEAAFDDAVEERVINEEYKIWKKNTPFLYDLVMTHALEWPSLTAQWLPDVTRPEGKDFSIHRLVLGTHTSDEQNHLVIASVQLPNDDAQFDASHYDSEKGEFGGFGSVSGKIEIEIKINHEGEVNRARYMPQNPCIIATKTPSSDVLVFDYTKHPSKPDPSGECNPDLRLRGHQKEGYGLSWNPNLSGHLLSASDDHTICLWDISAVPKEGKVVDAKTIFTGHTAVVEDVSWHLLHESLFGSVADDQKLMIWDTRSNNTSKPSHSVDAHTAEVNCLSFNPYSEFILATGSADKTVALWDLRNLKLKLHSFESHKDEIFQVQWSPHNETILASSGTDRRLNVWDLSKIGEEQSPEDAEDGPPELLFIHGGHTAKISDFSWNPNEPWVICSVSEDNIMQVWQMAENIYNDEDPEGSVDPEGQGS

CCCc1cc(C)[nH]c(=O)c1CNC(=O)c1cc(-c2ccnc(N3CCN(C)CC3)c2)cc2c1cnn2C(C)C [GSK343]
CDKN2A locus (p16 protein immunoblot) [1]: activation of the CDKN2A locus | H3K27Me3 [1]: loss of H3K27Me3 | activated RAS [1]: reduced activated RAS | cell proliferation [2]: reduced cell proliferation

CC(C)C[C@@H](C=O)NC(=O)[C@H](CC(C)C)NC(=O)[C@H](CC(C)C)NC(=O)OCc1ccccc1 [MG132] (Cbz-Leu-Leu-Leu-aldehyde)
protein expression of total MYC [3]: restored

Nc1ncn([C@H]2C[C@H](O)[C@@H](CO)O2)c(=O)n1 [decitabine, 5-aza-2′-deoxycytidine]
expression of RASAL1 protein [4]: restored
